The source of these data is patent publication US5134150A, “Inhibition of the 5-lipoxygenase pathway” (priority 1989, dated 1992).

Like-named read-outs stand apart in the source and are kept apart here.

Assay [1] deals with Experimental Allergic Encephalomyelitis Induced in Female Lewis Rats. The assay can be described thus: Experimental allergic encephalomyelitis, hindleg paralysis. The class given is in vivo, rat (female Lewis). The following applies: 0.3 mg/kg/day, p.o. Here is the method: EAE is induced in Female (Charles River) Lewis rats by a single intradermal injection of 0.1 ml of an encephalitogenic emulsion consisting of equial parts of a 50% w/v homogenate of guinea pig spinal cord and mid-brain in 0.5% aqueous phenol and Freund's complete adjuvant (4 mg/ml killed, dried M. butyricum) into a hindpaw (left) footpad. […] Any animal which becomes paralyzed during the course of the experiment is considered to have developed EAE whether or not the paralysis is permanent. Test compounds are administered daily beginning on the day of injection, for 19 days, exclusive of days 5, 6 12 and 13. Drug activity is determined by comparing the indicidence of EAE (paralysis) of the treated group with a control (vehicle) group. The level of significant difference between the treated groups and control groups is determined by a Chi-square test using a 2×2 contingency table. Body weight changes from day 0 are also statistically compared to the control group using a Student "t" test.

For assay [2], the system named is Arachidonic Acid-Induced Inflammation of the Mouse Ear. The assay can be described thus: Arachidonic acid-induced mouse ear inflammation. The format is in vivo, mouse (male Balb/c). The following applies: for inhibition in vivo at 50 mg/kg: Mus musculus, 1 h, Table 7A, read-out: % Inhibition of Ear Swelling. An excerpt: (§1) In the following Examples where mice were used, they were male Balb/c mice (20-28 g), and where rats were used, they were male Lewis rats (180-210 g). All mice and rats were obtained from Charles River Breeding Laboratories, Kingston, N.Y. Within a single experiment, mice and rats were sex and age matched.
(§2) The compounds of Formula (I) were used either as the free base or in the appropriate salt form. Levamisole was used as the hydrochloride salt. The compounds were homogenized in 0.5% tragacanth. Compounds were administered by gavage at the indicated dose in a final volume of 10 ml/kg. Nordihydroguaiaretic acid (NDGA) was solubilized in dimethylacetamide and diluted with olive oil for subcutaneous administration.
Arachidonic acid in acetone ([…]) was applied to the inner surface of the left ear. The thickness of both ears was then measured with a dial micrometer one hour after treatment, and the data were expressed as the change in thickness (10^-3 cm) between treated and untreated ears.
Test compounds were given orally in 0.5% tragacanth at the times indicated in the text prior to the topical application of arachidonic acid.
Parenteral administration of compound was accomplished by subcutaneous injection of solution as indicated.

Assay [3] deals with 5-lipoxygenase and LTA4 synthetase. The assay can be described thus: Di-HETE / LTB4 production by high speed supernatant of RBL-1 cells. The format is biochemical. The following applies: RBL-1 high speed supernatant; Table 9A; read-out: 5-LO IC50 (LTB4 production). As to the method:
(§3) For in vitro experiments, compounds were dissolved at appropriate concentrations in ethanol or DMSO (dimethylsulfoxide) (final concentration≤1.0%) and then diluted to final concentrations using the buffers indicated in the text.
(§4) The activities of these enzymes in extracts of RBL-1 cells were assayed using the method of Jakschik and Lee, Nature, 287, 51-52 (1980). RBL-1 cells were obtained from the American Type Culture Collection (#CRL 1378) and were grown at 37° C. (5% CO2 in air) in spinner culture in MEM supplemented with 10% heat inactivated fetal calf serum. Harvested cells were washed with 50 mM sodium phosphate buffer, pH 7.0, containing 1 mM EDTA and 0.1% gelatin, resuspended in fresh buffer (5×10^7 cells/ml) and disrupted by nitrogen cavitation using the Parr bomb at 750 psi for 10 min. The broken cell extract was then centrifuged at 10,000× g for 20 minutes (min) and the supernatant centrifuged at 100,000 xIg for 60 min. Aliquots (0.25 mls) of the supernatant were preincubated with or without drugs for 10 min, after which 10 μl CaCl2 (50 mM) was added and the reaction was initiated with 2.5 μl of 2.5 mM arachidonic acid-1-^14 C (final concentration was 25 μM; specific activity 20,000 dpm/nmole). After incubation for 3 min at 37° C., the reaction was terminated by addition of 2 volumes (0.5 ml) ice cold acetone and the sample was allowed to deproteinize on ice for 10 min prior to centrifugation at 1,000× g for 10 min. The deproteinized supernatant was adjusted to pH 3.5 with 2N formic acid and extracted with 2 volumes of ice cold ethyl acetate. The extracted samples were dried under argon, redissolved in ethyl acetate and applied to Whatman LK5D thin layer chromatography (TLC) plates which were developed using the A-9 solvent system [organic phase of ethyl acetate: 2,2,5-trimethylpentane:acetic acid: water (110:50:20:10)] described by Hamberg and Samuelsson, J. Biol. Chem., 241, 257-263 (1966). Arachidonic acid, 5-HETE, LTB4 and PGD2 were quantified with a Berthold LB 2832 autoscanner.
(§5) The 5-lipoxygenase and LTA4 synthetase activities were further studied under the following conditions. An additional centrifugation of the RBL-1 supernatant was run at 100,000× g for 60 min, to remove the particulate cyclooxygenase activity. Sample incubation was done under conditions similar to those described above, i.e., 2 mM CaCl2 and […] arachidonic acid-1-^14 C, however, with an incubation time of 5 min at 5° C. Under these conditions, only the 5-lipoxygenase pathway metabolites were detectable. The 5-HETE and di-HETEs were formed at a linear rate, and substantial amounts of the arachidonic acid-1-^14 C substrate were utilized.

Assay [4] has as its system LTC4 production by human monocytes. The assay can be described thus: LTC4 production by human monocytes. The class given is cell-based. Further details: key to IC50, LTC4 production: NS = not significant. As to conditions: A23187-stimulated human monocytes; for IC50: Monocyte. As to the method:
The compounds of Formula (I) were evaluated for their ability to inhibit the production of LTC4 by human monocytes according to the following assay. Human monocytes were prepared from whole blood supplied by the American Red Cross. The blood was fractinated by a two-step procedure employing sedimentation on Ficoll followed by sedimentation on Percoll. […] Non-adherent cells were removed by washing. […] When drugs were evaluated, they were added to the cells 30 minutes prior to the A23187. Supernatants were collected, […] by centrifugation and stored frozed at -20° C. until assay. The LTC4 content was determined by using a New England Nuclear Leukotriene C-4 (^3 H) RIA Kit as per instructions.

The test system of assay [5] is Infiltration of Polymorphonuclear Leukocytes into Sites of Carrageenan-Induced Inflammation. The assay can be described thus: Mouse carrageenan peritonitis (PMN infiltration). The class given is in vivo, mouse (male Balb/c). The following applies: for PMN infiltration, result in words: carrageenan peritonitis, mice.
Excerpt: as §1, §2
Mice were pretreated with either the test compound or vehicle one hour before the intraperitoneal injection of a 1.0% carrageenan suspension in saline (0.2 ml/mouse). Mice were sacrificed by cervical dislocation two hours after injection, and 3.0 ml of phosphate buffered saline, without Ca^++ or Mg^++, was injected into the peritoneum. Following massage, a 2.0 ml aliquot of the lavage fluid was removed, and the total cell count determined on a Coulter counter and differential cell count determined by microscopic examination of Giesma-stained slides.

For assay [6], the system named is area of infarction following coronary occlusion. The following applies: dogs; cited from earlier work.
The target of the next assay is T1, 5-Lipoxygenase (Rattus norvegicus, UniProt P12527).
T1 construct: The activities of these enzymes in extracts of RBL-1 cells were assayed; host or cells: RBL-1
T1 sequence (P12527 1-673): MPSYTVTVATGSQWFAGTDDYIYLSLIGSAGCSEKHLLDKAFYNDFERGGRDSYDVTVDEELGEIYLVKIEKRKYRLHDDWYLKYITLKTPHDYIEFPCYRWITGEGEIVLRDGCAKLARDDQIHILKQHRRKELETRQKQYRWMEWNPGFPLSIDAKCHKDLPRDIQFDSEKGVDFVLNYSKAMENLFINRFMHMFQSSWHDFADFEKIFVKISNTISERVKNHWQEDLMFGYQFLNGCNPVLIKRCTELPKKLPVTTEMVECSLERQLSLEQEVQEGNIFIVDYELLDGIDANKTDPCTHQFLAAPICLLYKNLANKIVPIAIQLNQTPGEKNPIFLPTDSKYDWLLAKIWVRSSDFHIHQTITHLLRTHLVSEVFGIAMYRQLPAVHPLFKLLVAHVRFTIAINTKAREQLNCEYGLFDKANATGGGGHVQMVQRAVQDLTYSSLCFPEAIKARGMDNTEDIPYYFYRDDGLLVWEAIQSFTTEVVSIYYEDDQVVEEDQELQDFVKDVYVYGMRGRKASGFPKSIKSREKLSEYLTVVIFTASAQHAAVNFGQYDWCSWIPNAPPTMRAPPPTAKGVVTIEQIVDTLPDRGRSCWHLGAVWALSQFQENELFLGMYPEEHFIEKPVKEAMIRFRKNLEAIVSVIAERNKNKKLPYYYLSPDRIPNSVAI
As to the kind of experiment: 5-HETE production by high speed supernatant of RBL-1 cells. The following applies: for IC50: RBL-1 high speed supernatant, Table 8A. The format is biochemical. As to the method: as §3, §4, §5

Another assay concerns psoriasis. The following applies: in vivo; cited from earlier work.
A further assay relates to lipoxygenase. As to conditions: in vitro; cited from earlier work.
Assay [7] relates to LTB4 and 5-HETE production. The following applies: in vitro; cited from earlier work.
The next assay has as its system rheumatoid arthritis. The following applies: preliminary observation; cited from earlier work.
[8] abbreviates: 25 mg/kg, p.o., pretreated at 2 hrs.

For the compound `CN(Cc1cnc2nc(N)nc(N)c2n1)c1ccc(C(=O)N[C@@H](CCC(=O)O)C(=O)O)cc1` [Methotrexate], in [1], the “Hindleg paralysis - cumulative incidence, day 9 to 13” value is 0/11 and the “Hindleg paralysis - cumulative incidence, day 14 to 18” value is 0/11.
Consider `COc1ccc(-c2nc3n(c2-c2ccncc2)CCS3)cc1` [Compound 18], for which, in assay [2] (po, 50 mg/kg p.o.), the inhibition in vivo at 50 mg/kg came to 40%. The IC50 in [3] worked out at 1.9 µM; in assay [4], 9.9 µM.
For `CC(=O)OC[C@H]1O[C@@H]([S-])[C@H](OC(C)=O)[C@@H](OC(C)=O)[C@@H]1OC(C)=O.CCP(CC)CC.[Au+]` [Auranofin], in [5] (2 mg Au/kg, p.o., Table 3), the “% Change (PMN)” value was -6% and the “PMN (Mean ± S.D.)” value is recorded as 7.50 ± 1.57 × 10^-5 /ml. Besides, in assay [5], the “PMN infiltration, result in words” value is given as “did not impair inflammatory cell infiltration”.
For `[O-][S+]1CCn2c1nc(-c1ccc(F)cc1)c2-c1ccncc1` (stereo not shown) [Compound 28, 5-(4-pyridyl)-6-(4-fluorophenyl)-2,3-dihydroimidazo[2,1-b]thiazole-S-oxide], in assay [2] (50 mg/kg s.c. or i.p.), the inhibition in vivo at 50 mg/kg was 69%. Moreover, the IC50 worked out at 1000 µM in assay [3] and 0.5 µM in assay [4].
Turning to `CCNc1ccc(-c2nc3n(c2-c2ccc(NCC)cc2)CCS3)cc1` [Compound 17], the inhibition in vivo at 50 mg/kg in assay [2] (50 mg/kg s.c. or i.p.) came out at 38%. Besides, the IC50 in assay [3] came to 0.1 µM; in assay [4], 1.2 µM.
As for `NC1=NN(c2cccc(C(F)(F)F)c2)CC1` [BW755-C], the “Area of infarction, in words” value in assay [6] is “reduced”.
For the compound `Fc1ccc(-c2c(-c3ccncc3)nc3n2CCS3)cc1` [Compound 12], the inhibition in vivo at 50 mg/kg in assay [2] (50 mg/kg s.c. or i.p.) turned out to be 58%. Also, the IC50 in [3] is 17 µM. In assay [4], the “IC50, LTC4 production” value is “NS”.
Turning to `FC(F)(F)c1ccc(-c2nc3n(c2-c2ccc(C(F)(F)F)cc2)CCS3)cc1` [Compound 27], the IC50 at 5-Lipoxygenase turned out to be 28 µM.
Regarding `CC(C(=O)O)c1ccc2oc(-c3ccc(Cl)cc3)nc2c1` (stereo not shown) [Benoxaprofen], the “Effect on psoriasis, in words” value in the assay on psoriasis is “promising effect”. Moreover, in the assay with lipoxygenase, the “Lipoxygenase inhibitory activity, in words” value is given as “in vitro lipoxygenase inhibitory activity”.
For the compound `O=C(O)c1cc(/N=N/c2ccc(S(=O)(=O)Nc3ccccn3)cc2)ccc1O` [Sulfasalazine], the “Inhibition of LTB4 and 5-HETE production, in words” value in assay [7] was “inhibit LTB4”. Moreover, the “Efficacy in rheumatoid arthritic patients, in words” value with rheumatoid arthritis is recorded as “efficacy, including remission”.
Consider `c1ccc([C@H]2CN3CCSC3=N2)cc1` [Levamisole], for which, in assay [5], the “PMN infiltration, result in words” value is recorded as “did not impair inflammatory cell infiltration”.
For `C[C@@H]1C[C@H]2[C@@H]3CCC4=CC(=O)C=C[C@]4(C)[C@@]3(F)[C@@H](O)C[C@]2(C)[C@@]1(O)C(=O)CO` [Dexamethasone, reference compound], the “PMN infiltration, result in words” value in assay [5] was “effective”. Moreover, in assay [2] (setting [8]), the “% Change (ear thickness)” value is -35% and the “Increase in Ear Thickness at 1 Hour” value is listed as 18.2 ± 4.1 × 10-3 cm. Also, the “Mouse ear edema, result in words” value in assay [2] (mouse, in vivo) is reported as “only moderately effective”.
As for `Fc1ccc(-c2nc3n(c2-c2ccc(F)cc2)CCS3)cc1` [Compound 26], the half-maximal inhibitory concentration (IC50) (against 5-Lipoxygenase; in [3]) was over 10 µM throughout. Besides, on 5-Lipoxygenase (read-out: inhibition of 5-HETE at 10 μM, 10 μM, Table 8A footnote), the inhibition at 10 µM was 46%.
In the case of `O=S1(=O)CCn2c1nc(-c1ccc(F)cc1)c2-c1ccncc1` [Compound 29, 5-(4-pyridyl)-6-(4-fluorophenyl)-2,3-dihydroimidazo[2,1-b]thiazole-S-dioxide], in [2] (po, 50 mg/kg p.o.), the inhibition in vivo at 50 mg/kg amounted to 67%. In addition, the values for the IC50 in assay [3] and in [4] were over 100 µM and 0.5 µM, respectively.

As a reminder, the IC50 is the concentration needed to halve the response being measured. As usually defined, the inhibition is the percentage by which the read-out fell short of the control.
